Experimental data as given in the NIST ThermoML archive (doi:10.1016/j.fluid.2017.01.019).
± gives the expanded uncertainty stated by the source.

Experiment: xn = mol fraction of the nth substance listed
Conditions: 100 kPa, Liquid; for mass density: Vibrating tube method; for viscosity: Falling or rolling sphere viscometry; for speed of sound: Frequency=3 MHz, Sing-around technique in a fixed-path interferometer

CCOS(=O)(=O)[O-].CCn1cc[n+](C)c1 [1-ethyl-3-methylimidazolium ethyl sulfate] + CCCCO
Conditions | mass density [kg/m3] | speed of sound [m/s] | viscosity [mPa·s]
289.15 K, x1 = 0.1071 | 894.433 ± 1.6 | – | –
289.15 K, x1 = 0.1982 | 955.118 ± 1.4 | – | –
289.15 K, x1 = 0.3069 | 1015.6 ± 1.5 | – | –
289.15 K, x1 = 0.3985 | 1058.77 ± 1.8 | – | –
289.15 K, x1 = 0.5048 | 1101.82 ± 2.5 | – | –
289.15 K, x1 = 0.603 | 1136.02 ± 3.3 | – | –
289.15 K, x1 = 0.7158 | 1169.99 ± 4.4 | – | –
289.15 K, x1 = 0.7951 | 1191.1 ± 5.4 | – | –
289.15 K, x1 = 0.9185 | 1219.88 ± 7.1 | – | –
289.15 K, x1 = 1 | 1236.33 ± 8.3 | – | –
298.15 K, x1 = 0.1071 | – | 1289.1 ± 1.9 | 4.24 ± 0.16
298.15 K, x1 = 0.1982 | – | 1334.4 ± 2.2 | 7.8 ± 0.19
298.15 K, x1 = 0.3069 | – | 1385.6 ± 2.6 | 10.83 ± 0.22
298.15 K, x1 = 0.3985 | – | 1430.2 ± 2.9 | 14.09 ± 0.27
298.15 K, x1 = 0.5048 | – | 1480.4 ± 3.3 | 19.44 ± 0.38
298.15 K, x1 = 0.603 | – | 1523.6 ± 3.6 | 26.62 ± 0.55
298.15 K, x1 = 0.7158 | – | 1571.7 ± 4 | 38.4 ± 0.84
298.15 K, x1 = 0.7951 | – | 1603.7 ± 4.3 | 49.51 ± 1.2
298.15 K, x1 = 0.9185 | – | 1649.7 ± 4.8 | 72.34 ± 2
298.15 K, x1 = 1 | – | 1682.3 ± 5.1 | 96.21 ± 3.2
303.15 K, x1 = 0.1071 | 890.751 ± 1.6 | 1273.7 ± 1.9 | 3.75 ± 0.16
303.15 K, x1 = 0.1982 | 951.498 ± 1.4 | 1319.9 ± 2.2 | 6.51 ± 0.18
303.15 K, x1 = 0.3069 | 1012.01 ± 1.5 | 1372 ± 2.6 | 9.15 ± 0.2
303.15 K, x1 = 0.3985 | 1055.33 ± 1.8 | 1417 ± 2.9 | 11.98 ± 0.24
303.15 K, x1 = 0.5048 | 1098.4 ± 2.5 | 1467.3 ± 3.3 | 16.51 ± 0.33
303.15 K, x1 = 0.603 | 1132.65 ± 3.2 | 1510.8 ± 3.6 | 22.37 ± 0.46
303.15 K, x1 = 0.7158 | 1166.67 ± 4.4 | 1559.1 ± 4 | 31.74 ± 0.7
303.15 K, x1 = 0.7951 | 1187.78 ± 5.3 | 1591.2 ± 4.3 | 40.39 ± 0.94
303.15 K, x1 = 0.9185 | 1216.56 ± 7 | 1637.3 ± 4.8 | 57.89 ± 1.4
303.15 K, x1 = 1 | 1232.93 ± 8.3 | 1670 ± 5.1 | 75.89 ± 2.2
308.15 K, x1 = 0.1071 | 887.005 ± 1.6 | 1258.4 ± 1.9 | 3.34 ± 0.16
308.15 K, x1 = 0.1982 | 947.88 ± 1.4 | 1305.4 ± 2.2 | 5.54 ± 0.17
308.15 K, x1 = 0.3069 | 1008.14 ± 1.5 | 1358.2 ± 2.6 | 7.92 ± 0.19
308.15 K, x1 = 0.3985 | 1051.76 ± 1.8 | 1403.8 ± 2.9 | 10.46 ± 0.23
308.15 K, x1 = 0.5048 | 1094.94 ± 2.4 | 1454.7 ± 3.3 | 14.4 ± 0.3
308.15 K, x1 = 0.603 | 1129.23 ± 3.2 | 1498.4 ± 3.6 | 19.31 ± 0.4
308.15 K, x1 = 0.7158 | 1163.39 ± 4.4 | 1546.8 ± 4 | 26.88 ± 0.59
308.15 K, x1 = 0.7951 | 1184.46 ± 5.3 | 1578.9 ± 4.3 | 33.7 ± 0.79
308.15 K, x1 = 0.9185 | 1213.19 ± 7 | 1625.2 ± 4.8 | 47.2 ± 1.2
308.15 K, x1 = 1 | 1229.57 ± 8.2 | 1657.9 ± 5.1 | 60.73 ± 1.6
313.15 K, x1 = 0.1071 | 883.165 ± 1.6 | 1243.2 ± 1.9 | 2.99 ± 0.16
313.15 K, x1 = 0.1982 | 944.157 ± 1.4 | 1290.7 ± 2.2 | 4.82 ± 0.16
313.15 K, x1 = 0.3069 | 1004.86 ± 1.5 | 1344.1 ± 2.6 | 6.95 ± 0.18
313.15 K, x1 = 0.3985 | 1048.25 ± 1.8 | 1390.4 ± 2.9 | 9.21 ± 0.21
313.15 K, x1 = 0.5048 | 1091.49 ± 2.4 | 1441.8 ± 3.3 | 12.62 ± 0.27
313.15 K, x1 = 0.603 | 1125.39 ± 3.2 | 1485.8 ± 3.6 | 16.74 ± 0.36
313.15 K, x1 = 0.7158 | 1160.05 ± 4.3 | 1534.5 ± 4 | 22.92 ± 0.51
313.15 K, x1 = 0.7951 | 1181.13 ± 5.3 | 1566.7 ± 4.3 | 28.36 ± 0.66
313.15 K, x1 = 0.9185 | 1209.91 ± 6.9 | 1613.1 ± 4.8 | 38.93 ± 0.98
313.15 K, x1 = 1 | 1226.21 ± 8.2 | 1645.9 ± 5.1 | 49.38 ± 1.3
318.15 K, x1 = 0.1071 | 879.331 ± 1.6 | 1228 ± 1.9 | 2.69 ± 0.15
318.15 K, x1 = 0.1982 | 940.543 ± 1.4 | 1276.5 ± 2.2 | 4.25 ± 0.16
318.15 K, x1 = 0.3069 | 1001.31 ± 1.5 | 1330.5 ± 2.6 | 6.16 ± 0.18
318.15 K, x1 = 0.3985 | 1044.72 ± 1.8 | 1377.6 ± 2.9 | 8.16 ± 0.2
318.15 K, x1 = 0.5048 | 1088.01 ± 2.4 | 1429.8 ± 3.3 | 11.12 ± 0.25
318.15 K, x1 = 0.603 | 1122.45 ± 3.2 | 1473.7 ± 3.6 | 14.62 ± 0.32
318.15 K, x1 = 0.7158 | 1156.71 ± 4.3 | 1522.6 ± 4 | 19.75 ± 0.44
318.15 K, x1 = 0.7951 | 1177.81 ± 5.2 | 1554.8 ± 4.3 | 24.19 ± 0.57
318.15 K, x1 = 0.9185 | 1206.65 ± 6.9 | 1601.2 ± 4.8 | 32.66 ± 0.83
318.15 K, x1 = 1 | 1222.87 ± 8.1 | 1634.1 ± 5.1 | 40.93 ± 1.1
323.15 K, x1 = 0.1071 | 875.482 ± 1.6 | 1213 ± 1.9 | 2.43 ± 0.15
323.15 K, x1 = 0.1982 | 936.794 ± 1.4 | 1262.2 ± 2.2 | 3.69 ± 0.16
323.15 K, x1 = 0.3069 | 997.633 ± 1.5 | 1317 ± 2.6 | 5.43 ± 0.17
323.15 K, x1 = 0.3985 | 1041.07 ± 1.8 | 1364.8 ± 2.9 | 7.28 ± 0.19
323.15 K, x1 = 0.5048 | 1084.47 ± 2.4 | 1417.4 ± 3.3 | 9.93 ± 0.23
323.15 K, x1 = 0.603 | 1118.96 ± 3.2 | 1461.5 ± 3.6 | 12.97 ± 0.29
323.15 K, x1 = 0.7158 | 1153.24 ± 4.3 | 1510.6 ± 4 | 17.27 ± 0.39
323.15 K, x1 = 0.7951 | 1174.37 ± 5.2 | 1543 ± 4.3 | 20.87 ± 0.5
323.15 K, x1 = 0.9185 | 1203.18 ± 6.9 | 1589.4 ± 4.8 | 27.56 ± 0.7
323.15 K, x1 = 1 | 1219.54 ± 8.1 | 1622.3 ± 5.1 | 33.82 ± 0.89
